Tests used:
UCP = assay: Amount of UCP in interscapular BAT mitochondria fraction by western blotting; assay type: in vivo, rat; conditions: Example 3; 0.5% in feed, rats 7 weeks; relative value, control group = 100
Procedure: (§1) After being reared for 7 weeks, the laboratory animals were fasted for 20 hours. […] Then mesenteric fat, perinephric fat, peritesticular fat, and interscapular brown fat were recovered and weighed and the brown fat was submitted to determinations of the amount of UCP. The plasma was obtained from blood by conventional methods and serum triglycerides, cholesterol, and phospholipid concentrations were determined. The amount of UCP was determined by the following method.
Interscapular BAT extracted from rats was homogenized with 200 mM sucrose (comprising 10 mM Tris-HCl at pH of 7.5; 2 mM EDTA), centrifuged for 5 minutes at 3,100 rpm and 4° C. using a centrifugator on a cold table, and the supernatent thereof was further centrifuged for 10 minutes at 12,000 rpm and 4° C. The precipitate thus obtained (mitochondria fraction) was served as the sample.
Polyacrylamide gel electrophoresis was performed with 11% separated gel, and 50 μg sample protein were submitted to analysis from each lane. As the electrophoresis conditions, migration for 10 minutes at 100 V and then for 1 hour at 200 V were adopted. […] After rinsing, the UCP band was detected on X-ray film with a chemiluminescence method detection reagent (Dupont). The darkness of the band on the film was read with a scanner and digitized by a computer. […]

[1] = 7-week feeding study in rats: body weight, feed ingested, symptoms; assay type: in vivo, Sprague-Dawley male rats; conditions: Example 3; 0.5% in feed plus 8.5% lard, rats 7 weeks
Procedure: (§2) After acclimation for 1 week on basic feed (F-2, Funabashi Farms Co., Ltd.) using 7-week-old Sprague-Dawley male rats, 7 rats per group were placed in the following 3 groups so that average body weight of each group would be the same and reared for 7 weeks. Rearing environment was adjusted to a temperature of 22 to 24° C. and humidity of 50 to 60%, with 12 hours of light and dark each (light time: 8:00 to 20:00, dark time: 20:00 to 8:00). Feed was supplied in restricted amounts and body weight was determined each week.
(§3) The components, including proteins, sugars, etc., were the same and the lipids were adjusted to 10% for each group. […]
as §1
With the exception that 8.5% lard was added to 0.5% starting DHA ethyl ester and served as the control group, and 8.5% lard was added to 0.5% coupled DHA ethyl ester and served as the coupled DHA ethyl group, the feed was in accordance with Example 1. […]

[2] = tested on: mesenteric fat, perinephric fat, peritesticular fat, interscapular brown fat; assay: 7-week feeding study in rats: weight of mesenteric, perinephric, peritesticular and interscapular brown fat; assay type: in vivo, Sprague-Dawley male rats; conditions: Example 3; 0.5% in feed plus 8.5% lard, rats 7 weeks
Procedure: as §2, §3, §1
Then the mesenteric fat, perinephric fat, peritesticular fat, and interscapular brown fat were collected and weight was determined, and the brown fat was submitted to determinations of the amount of UCP.

CC/C=C\C/C=C\C/C=C\C/C=C\C/C=C\C/C=C\CCC(=O)OCC [Control group, DHA ethyl ester]
UCP (UCP): 100 ± 8 | Body weight [1]: 515.8 ± 29 b g | Brown fat per body weight [2]: 0.073 ± 0.015% | Mesenteric fat per body weight [2]: 1.01 ± 0.20 b % | Total intra-abdominal fat per body weight [2]: 5.29 ± 0.93 b %

Reference: patent US6605297B2, “Substances having antiobese and visceral fat-reducing functions and utilization thereof” (Janiftec, Inc., priority 1998, dated 2003)
